Experiment: method code SF-AS, from DOI: 10.1080/10826079608005496

logP | SMILES
3.14 | CC(C)OC(=O)CSc1ccc(Cl)cc1[N+](=O)[O-]
2.12 | CC(C)OC(=O)CS(=O)(=O)c1ccc([N+](=O)[O-])cc1Cl
2.04 | CC(C)OC(=O)CS(=O)c1ccc([N+](=O)[O-])cc1Cl (stereo not drawn)
1.6 | CC(C)OC(=O)CS(=O)(=O)c1ccccc1[N+](=O)[O-]
2.72 | CC(C)OC(=O)CSc1ccc([N+](=O)[O-])cc1[N+](=O)[O-]
2.24 | CC(C)OC(=O)CS(=O)(=O)c1ccc(Cl)cc1[N+](=O)[O-]
2.66 | CC(C)OC(=O)CSc1ccc([N+](=O)[O-])cc1
1.79 | CC(C)OC(=O)CS(=O)(=O)c1ccc([N+](=O)[O-])cc1
2.5 | COC(=O)CSc1ccc(Cl)cc1[N+](=O)[O-]
3.29 | CC(C)OC(=O)CSc1ccc([N+](=O)[O-])cc1Cl
1.6 | COC(=O)CS(=O)(=O)c1ccc(Cl)cc1[N+](=O)[O-]
0.79 | COC(=O)CS(=O)c1ccc([N+](=O)[O-])cc1[N+](=O)[O-] (stereo not drawn)
2.66 | COC(=O)CSc1ccc([N+](=O)[O-])cc1Cl
